These results are taken from patent publication US8900600B2, “Identification, optimization and use of cryptic HLA-A24 epitopes for immunotherapy” (VAXON Biotech, priority 2009, dated 2014).

Assay [1] concerns HLA-A*2402 transgenic mice. Description: Cross-recognition assay: CTL from mice vaccinated with optimized peptide tested on targets loaded with native peptide. Type of assay: in vivo. To be noted: Table 7, CTL of mice vaccinated with the optimized peptide. The method, then: FIG. 2: Panels 2A-2F of FIG. 2 show immunogenicity of HLA-A*2402 restricted optimized cryptic peptides. HLA-A*2402 transgenic mice were vaccinated with the optimized peptide following the described protocol and generated CTL were tested against T2-A24 targets loaded with the optimized (immunogenicity), the corresponding native (native peptide cross recognition) or an irrelevant (NR) peptide as indicated. Percentage of specific lysis was determined as: Lysis=(Experimental Release−Spontaneous Release)/(Maximal Release−Spontaneous Release)×100. Four CTL dilutions, corresponding to four CTL/target cells ratio were tested.
(§1) The transgenic mice used in the described experiments were obtained by crossing HLA-A24 transgenic mice previously described (Barra et al., 1993) and H2 Kb^− H2 Db^− knock out mice, transgenic for both human β2 microglobulin and CD8α chain (Perarnau et al., 1999).
Mice were injected subcutaneously with 100 μg of optimized peptide emulsified in Incomplete Freund's Adjuvant (IFA) in the presence of 150 μg of the I-A^b restricted HBVcore128 T helper epitope (TPPAYRPPNAPIL, SEQ ID NO: 112). After 15 days, 5×10^7 spleen cells were stimulated firstly in vitro with the optimized peptide (10 μM), and secondly on day 6 of culture with the corresponding native peptide. On day 13, the bulk responder populations were tested for specific cytotoxicity against targets cells expressing HLA-A*2402 and loaded with the optimized, the native or an irrelevant peptide.
(§2) Targets were labelled with 100 μCi of Cr^51 for 60 min, plated in 96-well V-bottomed plates (3×10^3 cell/well in 100 μL of RPMI 1640 medium) and, when necessary, pulsed with optimized or native peptides (1 μM) at 37° C. for 2 hours. Four dilutions of effector cells were then added in the wells and incubated at 37° C. for 4 hours. Percentage of specific lysis was determined as: Lysis=(Experimental Release−Spontaneous Release)/(Maximal Release−Spontaneous Release)×100.

Another assay deals with HLA-A*2402 (Homo sapiens, UniProt P04439, D101N/D140Y/D185E/E176V/E190D/F33S/G103R/G107R/I119L/I121M/I306V/K335N/L105A/L180Q/L300P/N151K/N90K/Q86E/Q94H/R106L/R138H/R89G/T104I/T345S/V100E/W191G/Y123F). As to the kind of experiment: Measurement of peptide relative affinity to HLA-A*2402 (surface expression on T2-A24 cells). Type of assay: cell-based. The procedure: Measurement of Peptide Relative Affinity to HLA-A*2402.
The protocol used has been described previously (Rohrlich et al., 2003). Briefly, T2-A24 cells were incubated at 37° C. for 16 hours with peptides concentrations ranging from 100 μM to 0.1 μM, and then stained with 0041HA monoclonal antibody (mAb)(One Lambda, Inc.) to quantify the surface expression of HLA-A*2402. For each peptide concentration, the HLA-A*2402 specific staining was calculated as the percentage of staining obtained with 100 μM of the reference peptide standard A24 (AYIDNYNKF, SEQ ID NO: 111). The relative affinity (RA) was determined as: RA=(Concentration of each peptide that induces 30% of HLA-A*2402-expression/Concentration of the reference peptide that induces 30% of HLA-A*2402 expression).

Assay [2] deals with HLA-A*2402 transgenic mice. Description: CTL induction in vivo in HLA-A*2402 transgenic mice (immunogenicity, Cr51 cytotoxic assay). Also noted: key to Immunogenicity: (−) means that none of the mice vaccinated with the corresponding native peptides develops a specific immune response; (+) that less to 50% of vaccinated mice responded; (++) that more that 50% responded; key to Immunogenicity (class): −: (-) means that none of the mice vaccinated with the corresponding native peptides develops a specific immune response; (+) that less to 50% of vaccinated mice responded; (++) that more that 50% responded. To be noted: for Immunogenicity: Table 5, mice vaccinated with 100 μg native peptide in IFA, share of mice with specific immune response; for Immunogenicity (X/Y): X mice develop a specific response for a total of Y mice vaccinated / Immunogenicity (class): Table 7, mice vaccinated with the native or modified peptide; for Immunogenicity (class): share of mice responding. The method, then: FIG. 1: Panels 1A-1F of FIG. 1 show immunogenicity of HLA-A*2402 cryptic peptides. HLA-A*2402 transgenic mice were vaccinated with the cryptic peptides following the described protocol and generated CTL were tested against T2-A24 targets loaded with peptide as indicated (NR non relevant peptide). Percentage of specific lysis was determined as: Lysis=(Experimental Release−Spontaneous Release)/(Maximal Release−Spontaneous Release)×100. Four CTL dilutions, corresponding to four CTL/target cells ratio were tested.
as §1
Mice were injected subcutaneously with 100 μg of peptide emulsified in Incomplete Freund's Adjuvant (IFA) in the presence of 150 μg of the I-A^b restricted HBVcore128 T helper epitope (TPPAYRPPNAPIL, SEQ ID NO: 112). After 15 days, 5×10^7 spleen cells were stimulated twice in vitro with peptide (10 μM), at 6 days interval. On day 13 of culture, the bulk responder populations were tested for specific cytotoxicity against target cells expressing HLA-A*2402 and loaded with the same peptide.
as §2

Consider “PYMRQFVAH (Cryptic HLA-A2402 restricted peptide) [TERT 770, native cryptic HLA-A*2402 restricted peptide]”, for which, in assay [1], the “Native peptide cross recognition (X/Y): X mice develop a specific response for a total of Y mice vaccinated” value is recorded as 5/18 and the “Native peptide cross recognition (class)” value is “+ ((+) that less to 50% of vaccinated mice responded)”. Also, the “RA (Relative Affinity)” value with HLA-A*2402 (T2-A24 cells, 16 hours at 37° C., relative to reference peptide standard A24, concentration inducing 30% of HLA-A*2402 expression) was “+/− ((+/−) 10 < RA < 100)”. For the same sequence, in assay [2], the Immunogenicity result was “−”, the “Immunogenicity (X/Y): X mice develop a specific response for a total of Y mice vaccinated” value is reported as 0/3 and the “Immunogenicity (class)” value is “−”.

For “PYVSRLLGI (Cryptic HLA-A2402 restricted peptide) [Her2/neu 780, native cryptic HLA-A*2402 restricted peptide]”, in assay [1], the “Native peptide cross recognition (X/Y): X mice develop a specific response for a total of Y mice vaccinated” value was 3/9 and the “Native peptide cross recognition (class)” value is “+ ((+) that less to 50% of vaccinated mice responded)”. In addition, the “Binding to HLA-A*2402 (in words)” value in the assay with HLA-A*2402 is on record as “strongly binds”. For the same sequence, in assay [2], the “Immunogenicity in HLA-A24 transgenic mice (in words)” value was “non immunogenic”, the Immunogenicity entry is “−”, the “Immunogenicity (X/Y): X mice develop a specific response for a total of Y mice vaccinated” value is reported as 0/8 and the “Immunogenicity (class)” value is listed as “−”.
